Laboratory results as given in patent US9326451B1, “Seed pillow for overcoming the limiting factors controlling rangeland reseeding success” (The United States of America, as represented by the …, priority 2012, dated 2016).

Columns and labels:
bluebunch wheatgrass [1] = system: bluebunch wheatgrass; design: species or system Pseudoroegneria spicata; details: in vivo
Excerpt: (§1) In this study, bluebunch wheatgrass was either left untreated, coated with activated carbon, or incorporated into a seed-pillow containing activated carbon. Source of activated carbon used in the study was Nuchar® powdered activated carbon (MWV, Richmond, Va.). Seeds were coated with activated carbon according to U.S. Patent application 2010/0093535. Seed pillows were formed by mixing dough containing by weight 22% activated carbon, 18.6% diatomaceous earth, 57.9% SELVOL-205 solution with 1% solids, and 1.2% seed. Pellets were extruded and cut into 3 mm thick hexagon pellets that were 13 mm in diameter, with each pillow containing eight pure live seeds.
(§2) Bluebunch wheatgrass and cheatgrass were sown in 14×14 cm pots at 500 pure live seeds m-2, and 1000 seeds m-2, respectively. After planting, pots were sprayed with 4, 6, 8, or 12 oz/acre of the pre-emergent herbicide imazapic, or left unsprayed. The study was arranged in a randomized block design with 8 replicates per treatment.

[2] = system: cheatgrass (Bromus tectorum L.); test: Example 4: cheatgrass control by imazapic, pot study; type: in vivo
Excerpt: as §1, §2

bluebunch wheatgrass [3] = system: bluebunch wheatgrass; design: species or system Pseudoroegneria spicata; details: in vivo; remark: listed apart in the source
Excerpt: (§3) The following example illustrates the ability of seed pillows to protect seeds from soil-active herbicide and use of beneficial biostimulants and super-absorbent polymer. In the study, treatments included untreated seed and four seed pillow treatments, including seed incorporated into a pillow containing 1) activated carbon, 2) activated carbon plus biostimulants, 3) activated carbon plus super-absorbent polymer, and 4) activated carbon plus biostimulants and super-absorbent polymer. Pellets were extruded and cut into 3 mm thick hexagon pellets that were 13 mm in diameter, with each pillow containing eight pure live seeds.
(§4) Bluebunch wheatgrass and cheatgrass were sown in 14×14 cm pots at 500 pure live seeds m-2, and 1000 seeds m-2, respectively. After planting, half of the pots in the study were sprayed with 8 oz/acre of the pre-emergent herbicide imazapic, or left unsprayed. The study was arranged in a randomized block design with 8 replicates per treatment.

cheatgrass = test: Example 5: cheatgrass control by imazapic, pot study; type: in vivo, Bromus tectorum; details: 8 oz/acre, pre-emergent spray after planting
Excerpt: as §3, §4

[4] = system: 'Anatone' bluebunch wheatgrass; details: in vivo
Method: (§5) Soil was obtained from a Wyoming big sagebrush (Artemisia tridentata Nutt. ssp. wyomingensis [Beetle & A. Young] S. L. Welsh)-steppe community type, located at the Northern Great Basin Experimental Range, 16-km southwest of Riley, Oreg. (43° 32′N, 118° 9′ W). Soil on the site has a silt-loam texture and is classified as a fine-loamy, mixed, frigid Aridic Haploxeroll (Soil Survey Staff 2012). Soil was excavated from a maximum depth of 25-cm, with the top 2-cm of soil and litter discarded to remove existing seeds. Excavated soil was used to fill square 14-cm wide by 14-cm deep growing pots that were placed in a grow-room at the Eastern Oregon Agriculture Research Center, located in Burns, Oreg., USA.
Species used in the study included the native bunchgrass ‘Anatone’ bluebunch wheatgrass and the non-native annual weed downy brome. Bluebunch wheatgrass was chosen because it is often a major component of native plant communities in the sage-steppe ecosystem of western North America, is commonly used in rangeland seeding efforts (see e.g., Ogle et al. 2010 Plant guide for bluebunch wheatgrass (Pseudoroegneria spicata). USDA-Natural Resources Conservation Service. Idaho and Washington Plant Materials Program. 5 p). […]

downy brome = test: Example 6: downy brome control by imazapic, grow-room pot study; type: in vivo
Method: as §5
Species used in the study included the native bunchgrass ‘Anatone’ bluebunch wheatgrass and the non-native annual weed downy brome. Bluebunch wheatgrass was chosen because it is often a major component of native plant communities in the sage-steppe ecosystem of western North America, is commonly used in rangeland seeding efforts (see e.g., Ogle et al. 2010 Plant guide for bluebunch wheatgrass (Pseudoroegneria spicata). USDA-Natural Resources Conservation Service. Idaho and Washington Plant Materials Program. 5 p). Like many grasses used for restoration, bluebunch wheatgrass is injured by imazapic applied at rates required for downy brome control (see e.g., Shinn and Thill 2004 Weed Technology 18:60-65). Germination potential of bluebunch wheatgrass and downy brome was 92% and 98%, respectively (as tested on blue blotter paper in 130-mm diameter petri dishes, with 25 seeds·dish−1 replicated four times per species).
Bluebunch wheatgrass seeds were untreated, coated with activated carbon, or incorporated into HPPs containing activated carbon. Pots with the sown seeds were sprayed with 0, 70, 105, 140, or 210 g acid equivalent (ae)·ha−1 (0, 4, 6, 8, or 12 oz·acre−1) of the pre-emergent herbicide imazapic (Panoramic 2SL, Alligare LLC, Opelika, Ala.), (3 seed treatments×5 herbicide application rates=15 experimental treatments). The study was arranged in a randomized complete block design with 8 replicates per treatment.
Each pot was seeded with 20 PLS (1000 PLS·m−2) of downy brome, and 10 PLS (500 PLS·m−2) of bluebunch wheatgrass. Two pods were added to each pot designated to receive HPPs. […] Response variables recorded at the conclusion of the study included: 1) plant density, 2) shoot height, and 3) oven dried (65° C. for 72-hrs) aboveground biomass.
Bluebunch wheatgrass and downy brome response data were analyzed separately in SAS (Version 9.3; SAS Institute, Cary, N.C.) using a two-way randomized complete block analysis of variance (ANOVA; Proc Mixed). […] Significance was determined at P<0.05.

[5] = averaged across the study, 47 days

Cc1cnc(C2=NC(=O)C(C)(C(C)C)N2)c(C(=O)O)c1 (centres unmarked) [imazapic]
bluebunch wheatgrass growth, untreated seed (FIG. 3B) (bluebunch wheatgrass [1]): growth was arrested | control of cheatgrass growth ([2]; all application rates (4, 6, 8, 12 oz/acre)): effectively controlled | cheatgrass growth (FIG. 3C) ([2]; imazapic at 8 oz/acre, bluebunch seed in activated carbon pillow): suppressed | cheatgrass growth (FIG. 3B) ([2]; soil treated at 10 oz/acre): growth was arrested | effect on non-treated bluebunch wheatgrass seed (bluebunch wheatgrass [3]): effectively controlled | control of cheatgrass growth (cheatgrass): effectively controlled | effect on untreated bluebunch wheatgrass [4]: impaired | control of downy brome (downy brome; all application rates (70, 105, 140, 210 g ae·ha−1)): effectively controlled | reduction of downy brome biomass (downy brome; [5]): 140.2 fold | reduction of downy brome density (downy brome; [5]): 6.6 fold | reduction of downy brome height (downy brome; [5]): 8.0 fold
